Measured values taken from the supplement of paper PMC10307832.

Assays:
Assay in all cases: relative viability (nuclei count vs DMSO), 5 days (fraction); higher = more cells survive
Avagacestat = compound: NC(=O)[C@@H](CCC(F)(F)F)N(Cc1ccc(-c2ncon2)cc1F)S(=O)(=O)c1ccc(Cl)cc1 [Avagacestat]
How it was run: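 On vehicle-anchored 1536-well plates, lung cancer cell lines held overnight at 37 °C were pinned with five library-drug doses (not always all listed) spaced by √10. With no medium change over 5 days, they were then fixed, permeabilised and Hoechst-stained in one step and imaged at 4×. MetaXpress counted nuclei, and viability is the median across plates of treated-well over vehicle-well nuclei. Acceptance needed control CV below 25% and at least one doubling.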

Avagacestat + Trametinib = compound: NC(=O)[C@@H](CCC(F)(F)F)N(Cc1ccc(-c2ncon2)cc1F)S(=O)(=O)c1ccc(Cl)cc1 [Avagacestat] + CC(=O)Nc1cccc(-n2c(=O)n(C3CC3)c(=O)c3c(Nc4ccc(I)cc4F)n(C)c(=O)c(C)c32)c1 [Trametinib] (partner 0.02 µM)
How it was run: (§1)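 Lung cancer cell lines, seeded in 1536-well plates, were treated the following day by pin tool with a single drug or with five library-drug doses (not always all listed) in √10 steps on top of a fixed anchor-drug dose. Cells were fixed and nuclei stained in one step after 5 days, and nuclei were counted. Relative viability is the nuclei count for treated wells divided by that for vehicle wells, reported as medians of duplicate plates.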

Avagacestat + Olaparib = compound: NC(=O)[C@@H](CCC(F)(F)F)N(Cc1ccc(-c2ncon2)cc1F)S(=O)(=O)c1ccc(Cl)cc1 [Avagacestat] + O=C(c1cc(Cc2n[nH]c(=O)c3ccccc23)ccc1F)N1CCN(C(=O)C2CC2)CC1 [Olaparib] (partner 8 µM)
How it was run: as §1

Avagacestat + Phenformin = compound: NC(=O)[C@@H](CCC(F)(F)F)N(Cc1ccc(-c2ncon2)cc1F)S(=O)(=O)c1ccc(Cl)cc1 [Avagacestat] + N=C(N)NC(=N)NCCc1ccccc1 [Phenformin] (partner 250 µM)
How it was run: as §1

Cell Line | relative viability (Avagacestat; 0.08 µM) | relative viability (Avagacestat; 0.253 µM) | relative viability (Avagacestat; 0.8 µM) | relative viability (Avagacestat; 2.53 µM) | relative viability (Avagacestat; 8 µM) | relative viability (Avagacestat + Trametinib; first compound 0.08 µM) | relative viability (Avagacestat + Trametinib; first compound 0.253 µM) | relative viability (Avagacestat + Trametinib; first compound 0.8 µM) | relative viability (Avagacestat + Trametinib; first compound 2.53 µM) | relative viability (Avagacestat + Trametinib; first compound 8 µM) | relative viability (Avagacestat + Olaparib; first compound 0.08 µM) | relative viability (Avagacestat + Olaparib; first compound 0.253 µM) | relative viability (Avagacestat + Olaparib; first compound 0.8 µM) | relative viability (Avagacestat + Olaparib; first compound 2.53 µM) | relative viability (Avagacestat + Olaparib; first compound 8 µM) | relative viability (Avagacestat + Phenformin; first compound 0.08 µM) | relative viability (Avagacestat + Phenformin; first compound 0.253 µM) | relative viability (Avagacestat + Phenformin; first compound 0.8 µM) | relative viability (Avagacestat + Phenformin; first compound 2.53 µM) | relative viability (Avagacestat + Phenformin; first compound 8 µM)
LOU-NH91 | 1.05 | 0.881 | 1.14 | 0.917 | 0.968 | 0.877 | 0.801 | 0.839 | 0.765 | 0.765 | 0.964 | 0.983 | 0.966 | 0.914 | 0.926 | 0.708 | 0.652 | 0.862 | 0.717 | 0.754
HARA | 0.891 | 1.17 | 1.06 | 0.963 | 0.989 | 0.704 | 0.764 | 0.757 | 0.536 | 0.647 | 0.852 | 0.958 | 0.869 | 0.501 | 0.834 | 0.486 | 0.516 | 0.42 | 0.486 | 0.42
HCC-827 | 1.1 | 1.09 | 1.11 | 1.09 | 1.11 | 0.602 | 0.509 | 0.543 | 0.531 | 0.507 | 0.724 | 0.734 | 0.687 | 0.607 | 0.656 | 0.478 | 0.397 | 0.509 | 0.405 | 0.35
NCI-H1703 | 1.24 | 1.03 | 0.975 | 0.955 | 0.873 |  |  |  |  |  | 0.489 | 0.297 | 0.421 | 0.264 | 0.335 |  |  |  |  | 
NCI-H2405 | 1.01 | 0.99 | 1.08 | 0.956 | 0.97 | 0.687 | 0.69 | 0.548 | 0.508 | 0.554 | 0.976 | 0.911 | 0.978 | 0.778 | 0.826 | 0.393 | 0.45 | 0.44 | 0.381 | 0.408
PC-3 [JPC-3] | 1.2 | 1.08 | 1.25 | 1.05 | 1.02 | 0.763 | 0.754 | 0.816 | 0.742 | 0.714 | 1.21 | 1.28 | 1.36 | 1.13 | 1.2 | 0.461 | 0.443 | 0.487 | 0.472 | 0.521
NCI-H2085 | 1.05 | 1.02 | 1.04 | 1.1 | 0.985 | 0.608 | 0.604 | 0.637 | 0.559 | 0.644 | 0.823 | 0.833 | 0.847 | 0.825 | 0.8 | 0.85 | 0.756 | 0.726 | 0.862 | 0.729
201T | 0.995 | 1 | 1.1 | 0.927 | 0.965 | 0.732 | 0.749 | 0.761 | 0.691 | 0.625 | 0.925 | 0.812 | 0.871 | 0.79 | 0.737 | 0.55 | 0.514 | 0.471 | 0.424 | 0.424
NCI-H1975 | 1.02 | 1.21 | 1.15 | 0.943 | 0.967 | 0.305 | 0.361 | 0.429 | 0.33 | 0.361 | 1.03 | 1.04 | 0.94 | 0.814 | 0.665 | 0.48 | 0.422 | 0.42 | 0.398 | 0.42
NCI-H2023 | 1.18 | 1.22 | 1.1 | 0.912 | 0.804 | 0.681 | 0.59 | 0.569 | 0.522 | 0.449 | 0.751 | 0.52 | 0.479 | 0.493 | 0.475 | 0.474 | 0.476 | 0.453 | 0.35 | 0.368
BEN | 1.13 | 1.02 | 1.06 | 0.959 | 0.917 | 1.1 | 1.18 | 1.05 | 0.917 | 1.13 | 1.12 | 1.24 | 1.05 | 0.838 | 1.05 | 0.262 | 0.274 | 0.271 | 0.25 | 0.26
RERF-LC-KJ | 1.07 | 1.1 | 1.04 | 0.945 | 0.856 | 0.917 | 0.853 | 0.89 | 0.81 | 0.84 | 1.07 | 1.12 | 1.06 | 1 | 0.978 | 0.435 | 0.495 | 0.412 | 0.431 | 0.367
SK-MES-1 | 1.14 | 1.08 | 1.06 | 0.92 | 0.889 | 0.564 | 0.567 | 0.522 | 0.515 | 0.494 | 0.905 | 0.772 | 0.88 | 0.667 | 0.646 | 0.739 | 0.827 | 0.721 | 0.635 | 0.606
PC-14 | 1.32 | 1.18 | 1.35 | 1.02 | 0.922 | 1.14 | 1.1 | 0.933 | 0.736 | 0.649 | 0.316 | 0.418 | 0.298 | 0.251 | 0.3 | 0.768 | 0.728 | 0.86 |  | 0.628
NCI-H1437 | 1.09 | 0.997 | 1.1 | 0.915 | 0.877 | 0.518 | 0.668 | 0.575 | 0.398 | 0.436 | 0.804 | 0.743 | 0.696 | 0.667 | 0.543 | 0.382 | 0.378 | 0.342 | 0.266 | 0.287
NCI-H1993 | 1.16 | 1.09 | 1.34 | 0.93 | 1.01 | 0.576 | 0.316 | 0.629 | 0.504 | 0.577 | 1.28 | 1.1 | 1.17 | 1.17 | 0.836 | 0.548 | 0.531 | 0.473 | 0.451 | 0.59
